Non-standard residues stand in square brackets, D forms with d. Residues, ends and D or L forms follow the SMILES beside them.
Legend:
[1] = tested on: MCF10a breast epithelial cells; assay: MTS cell viability assay, healthy cells; format: cell-based; conditions: 48 h (FIG. 25: DIV3W-siNT complexes)
OVCAR3 cells = assay: cellular uptake of labeled siRNA by flow cytometry; format: cell-based; conditions: for uptake efficiency: OVCAR3, siNT-DY547, 4 hours
Protocol: Cellular Uptake. OVCAR3 and CAOV3 cells were prepared at 50,000 cells per well in a 24-well plate. […] Post-incubation, media was aspirated and cells were washed with 1× PBS. To counterstain the nuclei, SuperSignal NucBlue Hoechst stain (Thermo Fisher, Waltham, MA) was added to the cells for 30 minutes, followed by an additional 1×PBS wash. Subsequent imaging was performed using an EVOS FL Microscope (Thermo Fisher) at 10× magnification. For flow cytometric analysis, cells were detached, resuspended in 1× PBS, and analyzed using an Attune NXT Acoustic flow cytometer (Invitrogen, Carlsbad, CA) with the blue laser line and BL2 (574/26 nm) channel.
Cellular Uptake and Targeting Specificity. Observation of cell uptake was performed by seeding OVCAR3 and CAOV3 cells at a density of 50,000 cells per well in a 24-well plate. LHRH and LHRH-DIV3W peptides were complexed with […] as previously described and delivered to cells at 20:1 to 80:1 N:P ratios. Each cell line was incubated with tandem peptide complexes for both 4- and 24-hour treatment periods. Following incubation, cell media was removed, and cells were washed with 1× PBS prior to the addition of 500 μL of 1×PBS and SuperSignal NucBlue Hoescht 33342 nuclear stain (Thermo Fisher, Waltham, MA). Cellular imaging was completed using an EVOS FL Microscope (Thermo Fisher) at 10×, 20×, and 40× magnification. Flow cytometry was completed after cell imaging and cells were trypsinized, resuspended in 1×PBS, and analyzed with an Attune NXT Acoustic Flow Cytometer (Invitrogen) with the red laser line and RL2 […] channel.

RNase A = assay: gel assay of siRNA protection from RNase A degradation; format: in vitro ADME; conditions: 1 hour, several N:P ratios
Protocol: Gel Shift Assays. DIVA3, DIV3H, and DIV3W (all three denoted as DIV3 (X)) peptides suspended in RNase-free water (10 μM), were thawed, and kept on ice prior to complexation with 10 μM of negative control siGENOME non-targeting siRNA #5 (siNT, GE Healthcare Dharmacon, Lafayette, CO) in RNase-free water and incubated for 20 minutes at room temperature to allow the formation of DIV3 (X)-siNT complexes. Various molar ratios of peptides were complexed with siNT at increasing N:P molar ratios to determine the minimum molar ratio necessary to completely complex free siRNAs using an electrophoretic mobility shift assay. To determine the ability of each peptide variant to protect siRNAs from degradation, DIV3 (X)-siNT complexes or siNT alone was left untreated or incubated with either 50% v/v FBS or 5 μg/mL RNase A at 37° C. for one hour. Next, complexes were dissociated using 6% sodium dodecyl sulfate (SDS). Samples were added to a 2% agarose gel and run at 100 V. Gels were stained with ethidium bromide, destained with Milli-Q water, and imaged using a ChemiDoc XRS imager (Bio-Rad, Hercules, CA).
Characterization of Nanoparticle Size and Stability. To determine the minimum molar ratio necessary to completely complex free siRNAs, increasing N:P molar ratios of LHRH, DIV3W, and LHRH-DIV3W peptide were complexed with siRNAs and electrophoresed using a electrophoretic mobility shift assay. Molar ratios, shown as N:P, are representations of the molar amine peptide content in relation to 1 mole of phosphate group siRNA content. To determine the ability of the peptides to protect siRNAs from serum- or RNase-mediated degradation, LHRH and LHRH-DIV3W complexes were formed in RNase-free water with siNT at increasing N:P molar ratios and incubated at 37° C., 5% CO2, 50% v/v FBS, 5 μg/mL RNase A, or 50% v/v RNase free water for 1 hour. Peptide/siRNA complexes were dissociated using 6% sodium dodecyl sulfate (SDS) prior to electrophoresis in a 2% agarose gel run at 100 V. Gels were stained with ethidium bromide, washed with Milli-Q water, and imaged with a BioRad ChemiDoc XRS imager (BioRad, Hercules, CA).
Peptides VA-LD and GF-LD, comprising the cleavable linker VA or GLFG, respectively, between the LHRH target sequence and the DIV3W peptide, and non targeting siRNA were electrostatically complexed at increasing N:P ratios then subjected to agarose gel electrophoresis to determine optimal siRNA binding for each peptide. […] Peptide-siRNA nanocomplexes at increasing N:P ratios for peptides for VA-LD (FIG. 30A) and GF-LD (FIG. 30C) were incubated in either Rnase A enzyme or in 50% fetal bovine serum (FBS) for 1 h, dissociated using SDS then subjected to gel electrophoresis to visualize siRNA bands. Gels showing increasing N:P ratios of peptide:siRNA for VA-LD (FIG. 30B) and GF-LD (FIG. 30D) from 20:1 to 80:1 N:P; white bands are indicative of intact siRNA

CSNK2A1 mRNA [2] = assay: qPCR of CSNK2A1 mRNA in CAOV3 cells; format: cell-based; conditions: CAOV3, 48 hours, 80:1
Protocol: (§1) qRT-PCR. Cells were seeded at 50,000 cells per well and treated with siRNA targeting CSNK2A1 (siCSNK2A1 #s3638, Thermo Fisher Scientific) at increasing N:P ratios and incubated for a total of 48 hours in McCoys 5A/DMEM-10% FBS. Treated cells were washed with 1×PBS at 24 hours and fresh media was added. RNAisolation was completed using a Qiagen Mini-RNeasy Kit (Qiagen, Hilden, Germany) according to the manufacturer's protocol. RNA isolation quality and quantity were measured through the Gen5 protocol using a Take3 plate (BioTek). RNA was reverse-transcribed using the QuantiTect Reverse Transcription kit (Qiagen). Quantitative real-time PCR was completed with a QuantStudio 3 qPCR system (Applied Biosystems) using Applied Biosystems TaqMan FAST Master Mix (Thermo Fisher) and CSNK2A1 (ID #Hs00751002_s1) and 18S (ID #Hs99999901_s1) predesigned TaqMan probes, according to the manufacturer's protocol.

CSNK2A1 mRNA [3] = assay: qPCR of CSNK2A1 mRNA in OVCAR3 cells; format: cell-based; conditions: maximum; ratio and cell line not stated at the place
Protocol: as §1
Gene and Protein Knockdown. Bioactivity of siRNAs was determined via qPCR and western blot analysis. OVCAR3 or CAOV3 cells were seeded at 50,000 cells per well as previously described and treated with siRNA targeting CSNK2A1 and siNT at N:P ratios 30:1, 40:1, 50:1, 60:1, and 70:1. LHRH-DIV3W peptide complexed with either siNT or siCSNK2A1 was incubated for a total of 48 hours in RPMI 1640/DMEM-10% FBS, with one media exchange occurring after the 24-hour timepoint. Treated cells were washed with 1×PBS at 24 hours and fresh media was added. RNA isolation was completed using a Qiagen Mini-RNeasy Kit (Qiagen, Hilden, Germany) according to the manufacturer's protocol. RNA isolation quality and quantity was measured through the Gen5 protocol using a Take3 plate (BioTek). RNA was reverse transcribed using the QuantiTect Reverse Transcription kit (Qiagen) according to the manufacturer's protocol. Quantitative real-time PCR was completed with a QuantStudio 3 qPCR system (Applied Biosystems, Waltham, MA) using Applied Biosystems TaqMan FAST Master Mix (Thermo Fisher) and CSNK2A1 (ID #Hs00751002_s1) and 18S (ID #Hs99999901_s1) predesigned TaqMan probes according to the manufacturer's protocol.

[4] = dynamic light scattering, size and zeta potential of peptide/siRNA complexes; format: physicochemical
Protocol: Dynamic Light Scattering and Transmission Electron Microscopy. DIV3 (X)-siNT complexes were prepared at 2 mg/mL in RNase-free water. Hydrodynamic size and surface charge of the peptide/siRNA complexes were determined using a Nano ZS Zetasizer (Malvern Pananalytical, Malvern, UK). All data were recorded using Malvern's Zetasizer software.
To determine nanoparticle size and zeta potential, peptides resuspended in RNase-free water (10 μM) were thawed and kept on ice prior to complexation with 10 μM of siNT in RNase-free water and incubated for 20 minutes at room temperature to form DIV3W-siNT and LHRH-DIV3W-siNT complexes. Peptide complexes were prepared at 2 mg/mL in RNase-free water. Hydrodynamic size and surface charge analysis was conducted using a Malvern Nano ZS Zetasizer (Malvern Panalytical, Malvern, UK). All data was analyzed using Malvern's Zetasizer software.

CC[C@H](C)[C@H](NC(=O)[C@H](CC(=O)O)NC(=O)[C@H](C)NC(=O)[C@@H](NC(=O)[C@@H](NC(=O)[C@H](CC(=O)O)NC(=O)[C@H](Cc1c[nH]c2ccccc12)NC(=O)[C@@H](NC(=O)[C@@H](NC(=O)[C@H](CC(=O)O)NC(=O)[C@H](C)NC(=O)[C@@H](NC(=O)[C@@H](NC(=O)[C@H](CC(=O)O)NC(=O)[C@H](C)NC(=O)[C@H](CCC(=O)O)NC(=O)[C@@H](N)Cc1c[nH]c2ccccc12)[C@@H](C)CC)C(C)C)[C@@H](C)CC)C(C)C)[C@@H](C)CC)C(C)C)C(=O)N[C@H](C(=O)N[C@@H](C)C(=O)NCC(=O)NCC(=O)NCC(=O)N[C@H](CCCNC(=N)N)C(=O)N[C@H](CCCNC(=N)N)C(=O)N[C@H](CCCNC(=N)N)C(=O)N[C@H](CCCNC(=N)N)C(=O)N[C@H](CCCNC(=N)N)C(=O)N[C@H](CCCNC(=N)N)C(=O)N[C@H](CCCNC(=N)N)C(=O)N[C@H](CCCNC(=N)N)C(=O)N[C@H](CCCNC(=N)N)C(=O)O)C(C)C [DIV3W] (H-WEADIVADIVWDIVADIVAGGG[dR][dR][dR][dR][dR][dR][dR][dR][dR]-OH)
cytotoxicity in healthy cells [1]: no cytotoxic effects were observed
siRNA internalization efficiency (OVCAR3 cells; OVCAR3, at each N:P ratio): approximately 65%
uptake efficiency (OVCAR3 cells; 40:1): 70.0%
uptake efficiency (OVCAR3 cells; 60:1): 69.7%
uptake efficiency (OVCAR3 cells; 80:1): 66.6%
intact siRNA after incubation with RNase A (RNase A): Minimal degradation
CSNK2A1 mRNA knockdown, maximum (CSNK2A1 mRNA [2]): 80%
mRNA reduction (CSNK2A1 mRNA [3]): up to 94%
hydrodynamic diameter ([4]; DIV3 (X) peptide/siRNA complex at 60:1 ratio): around 100 nm
zeta potential ([4]; DIV3 (X) peptide/siRNA complexes): ~30 mV

Source: patent US20250177548A1, “FUSOGENIC PEPTIDE COMPOSITIONS AND METHODS OF CARGO DELIVERY” (CLEMSON UNIVERSITY, priority 2022, published 2025)
